{"source": "patent US6355799B1", "about": "“Substituted benzene compounds, process for their preparation, and herbicidal and defoliant compositions containing them” (ISK Americas Incorporated, priority 1997, dated 2002)", "assay_type_in_all_cases": "in vivo", "key": {"[1]": {"system": "redroot pigweed (Amaranthus retroflexus, AMARE)", "assay": "Pre-emerge test, greenhouse herbicide activity screening", "conditions": "rated 14 days after application, 0 = no damage, 100 = complete death", "procedure,_shortened": "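Plants grown in 10 cm pots of sandy loam mix received acetone-dissolved compounds through a moving flat-fan nozzle. Doses ranged from 15 to 1000 g ai/ha. Pre-emerge pots were seeded one day earlier, post-emerge pots 8–21 days earlier. Fourteen days on, each pot was graded 0–100 for damage.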"}, "[2]": {"system": "johnsongrass (Sorghum halepense, SORHA)", "assay": "Post-emerge test, greenhouse herbicide activity screening", "conditions": "post-emerge, 14 days after application, rating scale 0-100", "procedure,_shortened": "(§1)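 Compounds in acetone were track-sprayed at 187 l/ha, 15–1000 g ai/ha, onto sandy loam pots. Pre-emerge seeds were sown one day before spraying, with surface watering afterwards. Post-emerge plants were at the 2–3 leaf stage and sprayed with 0.25% v/v non-ionic surfactant. Injury was rated 0–100 at 14 days.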"}, "[3]": {"system": "barnyardgrass (Echinochloa crus-galli, ECHCG)", "assay": "Post-emerge test, greenhouse herbicide activity screening", "conditions": "post-emerge, 14 days after application, rating scale 0-100", "procedure,_shortened": "as §1"}, "[4]": {"system": "velvetleaf (Abutilon theophrasti, ABUTH)", "assay": "Post-emerge test, greenhouse herbicide activity screening", "conditions": "post-emerge, 14 days after application, rating scale 0-100", "procedure,_shortened": "as §1"}, "[5]": {"system": "common ragweed (Ambrosia artemisizfolia L., AMBEL)", "assay": "Post-emerge test, greenhouse herbicide activity screening", "conditions": "post-emerge, 14 days after application, rating scale 0-100", "procedure,_shortened": "as §1"}, "[6]": {"system": "redroot pigweed (Amaranthus retroflexus, AMARE)", "assay": "Post-emerge test, greenhouse herbicide activity screening", "conditions": "post-emerge, 14 days after application, rating scale 0-100", "procedure,_shortened": "as §1"}, "[7]": {"system": "lambsquarters (Chenopodium album, CHEAL)", "assay": "Post-emerge test, greenhouse herbicide activity screening", "conditions": "post-emerge, 14 days after application, rating scale 0-100", "procedure,_shortened": "as §1"}, "[8]": {"system": "green foxtail (Setaria viridis, SETVI)", "assay": "Post-emerge test, greenhouse herbicide activity screening", "conditions": "post-emerge, 14 days after application, rating scale 0-100", "procedure,_shortened": "as §1"}, "[9]": {"system": "large crabgrass (Digitaria sanguinalis, DIGSA)", "assay": "Post-emerge test, greenhouse herbicide activity screening", "conditions": "post-emerge, 14 days after application, rating scale 0-100", "procedure,_shortened": "as §1"}, "[10]": {"system": "sicklepod (Cassia obtusifolia, CASOB)", "assay": "Post-emerge test, greenhouse herbicide activity screening", "conditions": "post-emerge, 14 days after application, rating scale 0-100", "procedure,_shortened": "as §1"}, "[11]": {"system": "ivyleaf morningglory (Ipomoea hederacea, IPOHE)", "assay": "Post-emerge test, greenhouse herbicide activity screening", "conditions": "post-emerge, 14 days after application, rating scale 0-100", "procedure,_shortened": "as §1"}, "[12]": {"system": "field corn (Zea mays L., var. Dekalb 535, CORN)", "assay": "Post-emerge test, crop safety", "conditions": "post-emerge, 14 days after application, rating scale 0-100", "procedure,_shortened": "(§2)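 Fourteen days after spraying, crop and weed injury was graded visually from 0, no effect, to 100, every plant dead. Test substances were dissolved in acetone and applied at 15–1000 g ai/ha with a flat-fan nozzle. Application was either pre-emergence, one day after sowing, or post-emergence at the 2–3 leaf stage.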"}, "[13]": {"system": "upland rice (Oryza sp., var. Tebonnet, RICE)", "assay": "Post-emerge test, crop safety", "conditions": "post-emerge, 14 days after application, rating scale 0-100", "procedure,_shortened": "as §2"}, "[14]": {"system": "field corn (Zea mays L., var. Dekalb 535, CORN)", "assay": "Pre-emerge test, crop safety", "conditions": "rated 14 days after application, 0 = no damage, 100 = complete death", "procedure,_shortened": "(§3)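 Rating: 0–100 visual injury, 14 DAA. Application: acetone, 187 l/ha, 15–1000 g ai/ha, flat-fan track sprayer with nozzle 40–45 cm above soil or canopy. Post-emerge runs used 0.25% v/v surfactant on 2–3 leaf plants.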"}, "[15]": {"system": "upland rice (Oryza sp., var. Tebonnet, RICE)", "assay": "Pre-emerge test, crop safety", "conditions": "rated 14 days after application, 0 = no damage, 100 = complete death", "procedure,_shortened": "as §3"}, "[16]": {"system": "johnsongrass (Sorghum halepense, SORHA)", "assay": "Pre-emerge test, greenhouse herbicide activity screening", "conditions": "rated 14 days after application, 0 = no damage, 100 = complete death", "procedure,_shortened": "as §2"}, "[17]": {"system": "barnyardgrass (Echinochloa crus-galli, ECHCG)", "assay": "Pre-emerge test, greenhouse herbicide activity screening", "conditions": "rated 14 days after application, 0 = no damage, 100 = complete death", "procedure,_shortened": "as §2"}, "[18]": {"system": "velvetleaf (Abutilon theophrasti, ABUTH)", "assay": "Pre-emerge test, greenhouse herbicide activity screening", "conditions": "rated 14 days after application, 0 = no damage, 100 = complete death", "procedure,_shortened": "as §2"}, "[19]": {"system": "common ragweed (Ambrosia artemisizfolia L., AMBEL)", "assay": "Pre-emerge test, greenhouse herbicide activity screening", "conditions": "rated 14 days after application, 0 = no damage, 100 = complete death", "procedure,_shortened": "as §2"}, "[20]": {"system": "lambsquarters (Chenopodium album, CHEAL)", "assay": "Pre-emerge test, greenhouse herbicide activity screening", "conditions": "rated 14 days after application, 0 = no damage, 100 = complete death", "procedure,_shortened": "as §2"}, "[21]": {"system": "green foxtail (Setaria viridis, SETVI)", "assay": "Pre-emerge test, greenhouse herbicide activity screening", "conditions": "rated 14 days after application, 0 = no damage, 100 = complete death", "procedure,_shortened": "as §2"}, "[22]": {"system": "large crabgrass (Digitaria sanguinalis, DIGSA)", "assay": "Pre-emerge test, greenhouse herbicide activity screening", "conditions": "rated 14 days after application, 0 = no damage, 100 = complete death", "procedure,_shortened": "as §2"}, "[23]": {"system": "sicklepod (Cassia obtusifolia, CASOB)", "assay": "Pre-emerge test, greenhouse herbicide activity screening", "conditions": "rated 14 days after application, 0 = no damage, 100 = complete death", "procedure,_shortened": "as §2"}, "[24]": {"system": "ivyleaf morningglory (Ipomoea hederacea, IPOHE)", "assay": "Pre-emerge test, greenhouse herbicide activity screening", "conditions": "rated 14 days after application, 0 = no damage, 100 = complete death", "procedure,_shortened": "as §2"}}}
{"smiles": "COc1c(Cl)cc(F)c(-n2c(=O)cc(C(F)(F)F)n(C)c2=O)c1NC(=O)c1cccc(F)c1F", "note": "[2-41]", "values": [{"measurement": "Pre-emerge Herbicidal Activity, phytotoxicity rating (0-100), AMARE", "setting": "[1]; 63 g ai/ha", "result": 100}, {"measurement": "Pre-emerge Herbicidal Activity, phytotoxicity rating (0-100), AMARE", "setting": "[1]; 250 g ai/ha", "result": 100}, {"measurement": "phytotoxicity rating SORHA", "setting": "[2]; 63 g ai/ha", "result": 0}, {"measurement": "phytotoxicity rating SORHA", "setting": "[2]; 250 g ai/ha", "result": 70}, {"measurement": "phytotoxicity rating ECHCG", "setting": "[3]; 63 g ai/ha", "result": 0}, {"measurement": "phytotoxicity rating ECHCG", "setting": "[3]; 250 g ai/ha", "result": 30}, {"measurement": "phytotoxicity rating ABUTH", "setting": "[4]; 63 g ai/ha", "result": 100}, {"measurement": "phytotoxicity rating ABUTH", "setting": "[4]; 250 g ai/ha", "result": 100}, {"measurement": "phytotoxicity rating AMBEL", "setting": "[5]; 63 g ai/ha", "result": 50}, {"measurement": "phytotoxicity rating AMBEL", "setting": "[5]; 250 g ai/ha", "result": 95}, {"measurement": "phytotoxicity rating AMARE", "setting": "[6]; 63 g ai/ha", "result": 95}, {"measurement": "phytotoxicity rating AMARE", "setting": "[6]; 250 g ai/ha", "result": 100}, {"measurement": "phytotoxicity rating CHEAL", "setting": "[7]; 63 g ai/ha", "result": 95}, {"measurement": "phytotoxicity rating CHEAL", "setting": "[7]; 250 g ai/ha", "result": 100}, {"measurement": "phytotoxicity rating SETVI", "setting": "[8]; 63 g ai/ha", "result": 20}, {"measurement": "phytotoxicity rating SETVI", "setting": "[8]; 250 g ai/ha", "result": 30}, {"measurement": "phytotoxicity rating DIGSA", "setting": "[9]; 63 g ai/ha", "result": 0}, {"measurement": "phytotoxicity rating DIGSA", "setting": "[9]; 250 g ai/ha", "result": 20}, {"measurement": "phytotoxicity rating CASOB", "setting": "[10]; 63 g ai/ha", "result": 60}, {"measurement": "phytotoxicity rating CASOB", "setting": "[10]; 250 g ai/ha", "result": 95}, {"measurement": "phytotoxicity rating IPOHE", "setting": "[11]; 63 g ai/ha", "result": 100}, {"measurement": "phytotoxicity rating IPOHE", "setting": "[11]; 250 g ai/ha", "result": 100}, {"measurement": "phytotoxicity rating CORN", "setting": "[12]; 63 g ai/ha", "result": 15}, {"measurement": "phytotoxicity rating CORN", "setting": "[12]; 250 g ai/ha", "result": 80}, {"measurement": "phytotoxicity rating RICE", "setting": "[13]; 63 g ai/ha", "result": 10}, {"measurement": "phytotoxicity rating RICE", "setting": "[13]; 250 g ai/ha", "result": 70}, {"measurement": "Pre-emerge phytotoxicity rating (0-100), crop damage, CORN", "setting": "[14]; 63 g ai/ha", "result": 35}, {"measurement": "Pre-emerge phytotoxicity rating (0-100), crop damage, CORN", "setting": "[14]; 250 g ai/ha", "result": 95}, {"measurement": "Pre-emerge phytotoxicity rating (0-100), crop damage, RICE", "setting": "[15]; 63 g ai/ha", "result": 50}, {"measurement": "Pre-emerge phytotoxicity rating (0-100), crop damage, RICE", "setting": "[15]; 250 g ai/ha", "result": 90}, {"measurement": "Pre-emerge Herbicidal Activity, phytotoxicity rating (0-100), SORHA", "setting": "[16]; 63 g ai/ha", "result": 30}, {"measurement": "Pre-emerge Herbicidal Activity, phytotoxicity rating (0-100), SORHA", "setting": "[16]; 250 g ai/ha", "result": 100}, {"measurement": "Pre-emerge Herbicidal Activity, phytotoxicity rating (0-100), ECHCG", "setting": "[17]; 63 g ai/ha", "result": 50}, {"measurement": "Pre-emerge Herbicidal Activity, phytotoxicity rating (0-100), ECHCG", "setting": "[17]; 250 g ai/ha", "result": 100}, {"measurement": "Pre-emerge Herbicidal Activity, phytotoxicity rating (0-100), ABUTH", "setting": "[18]; 63 g ai/ha", "result": 100}, {"measurement": "Pre-emerge Herbicidal Activity, phytotoxicity rating (0-100), ABUTH", "setting": "[18]; 250 g ai/ha", "result": 100}, {"measurement": "Pre-emerge Herbicidal Activity, phytotoxicity rating (0-100), AMBEL", "setting": "[19]; 63 g ai/ha", "result": 100}, {"measurement": "Pre-emerge Herbicidal Activity, phytotoxicity rating (0-100), AMBEL", "setting": "[19]; 250 g ai/ha", "result": 100}, {"measurement": "Pre-emerge Herbicidal Activity, phytotoxicity rating (0-100), CHEAL", "setting": "[20]; 63 g ai/ha", "result": 100}, {"measurement": "Pre-emerge Herbicidal Activity, phytotoxicity rating (0-100), CHEAL", "setting": "[20]; 250 g ai/ha", "result": 100}, {"measurement": "Pre-emerge Herbicidal Activity, phytotoxicity rating (0-100), SETVI", "setting": "[21]; 63 g ai/ha", "result": 95}, {"measurement": "Pre-emerge Herbicidal Activity, phytotoxicity rating (0-100), SETVI", "setting": "[21]; 250 g ai/ha", "result": 100}, {"measurement": "Pre-emerge Herbicidal Activity, phytotoxicity rating (0-100), DIGSA", "setting": "[22]; 63 g ai/ha", "result": 70}, {"measurement": "Pre-emerge Herbicidal Activity, phytotoxicity rating (0-100), DIGSA", "setting": "[22]; 250 g ai/ha", "result": 100}, {"measurement": "Pre-emerge Herbicidal Activity, phytotoxicity rating (0-100), CASOB", "setting": "[23]; 63 g ai/ha", "result": 80}, {"measurement": "Pre-emerge Herbicidal Activity, phytotoxicity rating (0-100), CASOB", "setting": "[23]; 250 g ai/ha", "result": 100}, {"measurement": "Pre-emerge Herbicidal Activity, phytotoxicity rating (0-100), IPOHE", "setting": "[24]; 63 g ai/ha", "result": 90}, {"measurement": "Pre-emerge Herbicidal Activity, phytotoxicity rating (0-100), IPOHE", "setting": "[24]; 250 g ai/ha", "result": 100}]}
